For one series, the target named is T1, EP4 receptors (Homo sapiens, UniProt P35408).
T1 construct: expressed in transfected cells; host or cells: HEK-293
The experiment in a line: Radioligand binding [3H]PGE2, EP4 Ki. As to conditions: [3H]PGE2 competition, HEK-293 cells expressing EP4. Here is the method: (§1) HEK-293 cells stably expressing the human or feline FP receptor, or EP1, EP2, or EP4 receptors were washed with TME buffer, scraped from the bottom of the flasks, and homogenized for 30 sec using a Brinkman PT 10/35 polytron. TME buffer was added to achieve a final 40 ml volume in the centrifuge tubes (the composition of TME is 100 mM TRIS base, 20 mM MgCl2, […]; 10N HCl is added to achieve a pH of 7.4).
(§2) The cell homogenate was centrifuged at 19000 r.p.m. for 20 min at 4° C. using a Beckman Ti-60 rotor. The resultant pellet was resuspended in TME buffer to give a final 1 mg/ml protein concentration, as determined by Biorad assay. Radioligand binding competition assays vs. [^3H-]17-phenyl PGF2α (5 nM) were performed in a 100 μl volume for 60 min. Binding reactions were started by adding plasma membrane fraction. The reaction was terminated by the addition of 4 ml ice-cold TRIS-HCl buffer and rapid filtration through glass fiber GF/B filters using a Brandel cell harvester. The filters were washed 3 times with ice-cold buffer and oven dried for one hour.
(§3) [^3H-] PGE2 (specific activity 180 Ci mmol) was used as the radioligand for EP receptors. [^3H] 17-phenyl PGF2α was employed for FP receptor binding studies. Binding studies employing EP1, EP2, EP4 and FP receptors were performed in duplicate in at least three separate experiments. A 200 μl assay volume was used. Incubations were for 60 min at 25° C. and were terminated by the addition of 4 ml of ice-cold 50 mM TRIS-HCl, followed by rapid filtration through Whatman GF/B filters and three additional 4 ml washes in a cell harvester (Brandel). Competition studies were performed using a final concentration of 5 nM [^3H]-PGE2, or 5 nM [^3H] 17-phenyl PGF2α and non-specific binding determined with 10^−5M of unlabeled PGE2, or 17-phenyl PGF2α, according to receptor subtype studied.

In the next series the target is T2, hEP2/Gqs5 (Homo sapiens, UniProt P43116).
T2 construct: expressed in transfected cells; host or cells: HEK-293(EBNA)
The experiment in a line: FLIPR calcium signal, EP2. The class given is cell-based. As to conditions: HEK-293(EBNA) cells. The method, then: (§4) HEK-293(EBNA) cells, stably expressing one type or subtype of recombinant human prostaglandin receptors (prostaglandin receptors expressed: hDP/Gqs5; hEP1; hEP2/Gqs5; hEP3A/Gqi5; hEP4/Gqs5; hFP; hIP; hTP), were cultured in 100 mm culture dishes in high-glucose DMEM medium containing 10% fetal bovine serum, 2 mM l-glutamine, 250 μg/ml geneticin (G418) and 200 μg/ml hygromycin B as selection markers, and 100 units/ml penicillin G, 100 μg/ml streptomycin and 0.25 μg/ml amphotericin B.
(§5) Cells were seeded at a density of 5×10^4 cells per well in Biocoat® Poly-D-lysine-coated black-wall, clear-bottom 96-well plates (Becton-Dickinson) and allowed to attach overnight in an incubator at 37° C. Cells were then washed two times with HBSS-HEPES buffer (Hanks Balanced Salt Solution without bicarbonate and phenol red, 20 mM HEPES, pH 7.4) using a Denley Cellwash plate washer (Labsystems). After 45 minutes of dye-loading in the dark, using the calcium-sensitive dye Fluo-4 […] at a final concentration of 2 μM, plates were washed four times with HBSS-HEPES buffer to remove excess dye leaving 100 μl in each well. Plates were re-equilibrated to 37° C. for a few minutes.
(§6) Cells were excited with an Argon laser at 488 nm, and emission was measured through a 510-570 nm bandwidth emission filter (FLIPR™, Molecular Devices, Sunnyvale, Calif.). Drug solution was added in a 50 μl volume to each well to give the desired final concentration. The peak increase in fluorescence intensity was recorded for each well. On each plate, four wells each served as negative (HBSS-HEPES buffer) and positive controls (standard agonists: BW245C (hDP); PGE2 (hEP1; hEP2/Gqs5; hEP3A/Gqi5; hEP4/Gqs5); PGF2α (hFP); carbacyclin (hIP); U-46619 (hTP), depending on receptor). The peak fluorescence change in each drug-containing well was then expressed relative to the controls.
(§7) Compounds were tested in a high-throughput (HTS) or concentration-response (CoRe) format. In the HTS format, forty-four compounds per plate were examined in duplicates at a concentration of 10^−5 M. To generate concentration-response curves, four compounds per plate were tested in duplicates in a concentration range between 10^−5 and 10^−11 M. The duplicate values were averaged. In either, HTS or CoRe format each compound was tested on at least 3 separate plates using cells from different passages to give an n≧3.

For series [1], the target named is T3, EP2 (Homo sapiens, UniProt P43116). In words: cAMP assay, EP2. It counts as cell-based. The arrangement: expressed in transfected cells; host or cells: HEK-EBNA. As to conditions: HEK-EBNA cells expressing EP2. The method, then:
A 384-well drug plate was prepared to contain 6 test compounds, PGE2 and cAMP in 16 serial dilutions in triplicate, using a Biomek station. HEK-EBNA cells expressing a target PG receptor subtype (EP2 or EP4) were suspended in a stimulation buffer (HBSS, 0.1% BSA, 0.5 mM IBMX and 5 mM HEPES, pH 7.4) in a density of 10^4 cells/5 μl. The reaction was initiated by mixing 5 μL drug dilutions with 5 μl of HEK-EBNA cells in a well, carried out for 30 min at room temperature, and followed by the addition of 5 μl anti-cAMP acceptor beads in the control buffer with Tween-20 (25 mM NaCl, 0.03% Tween-20, 5 mM HEPES, pH7.4). After 30 min in the dark at room temperature, the mixtures were incubated with 15 μl biotinylated-cAMP/strepavidin donor beads in Lysis/Detection buffer (0.1% BSA, 0.3% Tween-20 and 5 mM HEPES, pH7.4) for 45 min at the room temperature. Fluorescence changes were read using a Fusion-alpha HT microplate reader.

Another series deals with T4, hEP4/Gqs5 (Homo sapiens, UniProt P35408).
T4 construct: expressed in transfected cells; host or cells: HEK-293(EBNA)
The experiment in a line: FLIPR calcium signal, EP4. The settings on record: HEK-293(EBNA) cells. The class given is cell-based. The method, then: as §4, §5, §6, §7

For series [2], the target named is T3, EP2. In words: Competition binding [3H]PGE2, EP2 Ki. The arrangement: expressed in transfected cells; host or cells: HEK 293. The settings on record: [3H]PGE2 competition, HEK 293 cells expressing human EP2. Here is the method: Competition binding experiments were performed in a medium containing Hank's balanced salt solution, Hepes 20 mM, pH 7.3, membranes (˜60 μg protein) or 2×10^5 cells from HEK 293 cells stably expressing human EP2 receptors, [^3H]PGE2 (10 nM) and various concentrations of test compounds in a total volume of 300 μl. Reaction mixtures were incubated at 23° C. for 60 min, and were filtered over Whatman GF/B filters under vacuum. Filters were washed three times with 5 ml ice-cold buffer containing 50 mM Tris/HCl (pH 7.3). Non-specific binding was estimated in the presence of excess unlabeled PGE2 (10 μM). Binding data fitted to the binding model for a single class of binding sites, using nonlinear regression analysis. IC50 values thus obtained were converted to Ki using the equation of Ki=(IC50/(1+[L]/KD) where [L] represents PGE2 concentration (10 nM) and KD the dissociation constant for [^3H]PGE2 at human EP2 receptors (40 nM).
as §1, §2, §3

The next series concerns normotensive dogs. The experiment in a line: Intraocular pressure and ocular surface hyperemia in normotensive dogs. It counts as in vivo, dog. Set-up: scale not given here. The settings on record: 0.01%, once daily for 5 days, at 74 h. From the text:
U.S. Pat. No. 7,091,231 describes the methods used for these in vivo tests.

The target in a further series is T5, hTP (Homo sapiens, UniProt P21731).
T5 construct: expressed in transfected cells; host or cells: HEK-293(EBNA)
T5 sequence (P21731 1-343): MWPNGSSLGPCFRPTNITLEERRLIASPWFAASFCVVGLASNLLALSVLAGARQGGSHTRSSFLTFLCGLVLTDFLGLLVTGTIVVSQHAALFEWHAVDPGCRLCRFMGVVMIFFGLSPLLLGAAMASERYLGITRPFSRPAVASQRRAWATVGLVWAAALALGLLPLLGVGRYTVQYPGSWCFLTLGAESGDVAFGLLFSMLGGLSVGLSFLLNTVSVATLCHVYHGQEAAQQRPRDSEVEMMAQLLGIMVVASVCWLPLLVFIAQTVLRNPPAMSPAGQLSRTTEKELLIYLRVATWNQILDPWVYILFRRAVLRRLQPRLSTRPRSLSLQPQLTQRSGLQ
In words: FLIPR calcium signal, hTP. It counts as cell-based. As to conditions: read-out: Other Receptors (EC50 in nM) hTP. The method, then:
as §4, §5, §6
Compounds were tested in a high-throughput (HTS) or concentration-response (CoRe) format. […]

pEC50, pKi: −log10 of the molar value.

T3 sequence (P43116 whole entry): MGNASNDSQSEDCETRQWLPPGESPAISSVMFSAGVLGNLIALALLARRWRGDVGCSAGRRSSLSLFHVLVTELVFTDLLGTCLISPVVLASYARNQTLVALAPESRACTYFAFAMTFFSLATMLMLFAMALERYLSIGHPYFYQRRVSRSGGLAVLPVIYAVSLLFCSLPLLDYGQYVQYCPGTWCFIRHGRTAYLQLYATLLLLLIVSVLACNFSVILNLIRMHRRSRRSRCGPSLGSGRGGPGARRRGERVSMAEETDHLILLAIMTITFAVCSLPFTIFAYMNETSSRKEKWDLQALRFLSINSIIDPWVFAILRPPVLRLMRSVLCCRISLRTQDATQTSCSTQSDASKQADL
T2 sequence (P43116 whole entry): as above
T4 sequence (P35408 whole entry): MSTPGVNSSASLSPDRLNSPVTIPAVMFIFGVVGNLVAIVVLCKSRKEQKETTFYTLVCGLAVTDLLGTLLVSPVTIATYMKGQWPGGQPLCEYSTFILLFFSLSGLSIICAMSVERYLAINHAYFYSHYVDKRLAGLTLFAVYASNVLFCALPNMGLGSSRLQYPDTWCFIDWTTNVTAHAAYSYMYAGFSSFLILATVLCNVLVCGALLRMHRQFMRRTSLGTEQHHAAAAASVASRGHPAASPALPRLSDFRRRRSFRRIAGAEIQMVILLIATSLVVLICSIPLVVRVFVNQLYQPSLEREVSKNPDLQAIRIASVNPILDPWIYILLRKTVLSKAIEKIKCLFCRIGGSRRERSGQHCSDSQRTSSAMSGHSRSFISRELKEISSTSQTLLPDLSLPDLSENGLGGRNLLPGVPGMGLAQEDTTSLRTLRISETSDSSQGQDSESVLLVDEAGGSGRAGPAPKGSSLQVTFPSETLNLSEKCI
T1 sequence (P35408 whole entry): as above

As usually defined, the pKi is the Ki on a negative log10 scale, so that one unit is a factor of ten. What is called pEC50 is the negative decadic logarithm of the EC50, by convention in mol/L. A word on the EC50: it is the midpoint of the concentration-response curve. In the case of `O=C(O)CCCCCC[C@@H]1[C@@H](CCc2cc(Cl)cc(Cl)c2)[C@H](O)C[C@H]1Cl` [compound 6, 7-{(1R,2R,3R,5R)-5-Chloro-2-[2-(3,5-dichloro-phenyl)-ethyl]-3-hydroxy-cyclopentyl}-heptanoic acid], the pKi is 6.40 at EP4 receptors and 7.66 on EP2 [2]. Further, the pEC50 at hEP2/Gqs5 was 5.49; on EP2 [1], 9.10; at hEP4/Gqs5, 4.99. In addition, the “maximum ocular surface hyperemia (OSH) score” value with normotensive dogs is given as 0.8. On hTP, the EC50 turned out to be 4620 nM.

The values are drawn from patent US7592366B2, “Therapeutic compounds” (Allergan, Inc., priority 2006, dated 2009).
